The supplement of paper PMC8671470
± gives the standard deviation of the averaged measurements.

What was measured:
Conditions in all cases: 72 h
HL-60 [1] = tested on: HL-60
Summary of the method: (§1)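 Fifteen myeloid leukaemia cell lines were seeded in RPMI 1640 at a density titrated to the linear growth range. Each line went into 384-well plates with compounds acoustically pre-printed at five tenfold doses from 1 to 10,000 nM, in duplicate, and was incubated for 72 h at 37 °C with 5% CO2. Luminescent ATP viability was normalised to vehicle and to a positive control at 10 µM. The IC50 came from four-parameter log-logistic dose–response fits.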

KCL-22 [2] = tested on: KCL-22
Summary of the method: as §1

KG-1 [3] = tested on: KG-1
Summary of the method: as §1

ML-2 [4] = tested on: ML-2
Summary of the method: as §1

NOMO-1 [5] = tested on: NOMO-1
Summary of the method: as §1

HL-60 [6] = assay: cell viability (% survival relative to DMSO control); higher = less cytotoxic
Summary of the method: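 For each screen, HL-60 cells in RPMI 1640 with 10% FBS carried either DMSO or 100 nM of one of three metabolic inhibitors while the full library was applied at five tenfold concentrations, 1–10,000 nM, in duplicate. Plates were 384-well and were kept 72 h at 37 °C, 5% CO2. Viability, measured by CellTiter-Glo, was normalised to wells with DMSO and with 10 μM proteasome inhibitor. Where area under the curve appears, it was fitted by four-parameter log-logistic models in drc and PharmacoGx.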

BV-173 = assay: cell viability (% survival relative to DMSO control, bortezomib = 0%); higher = less cytotoxic
Summary of the method: (§2)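 Seeding density for each of the 10 AML and 5 CML cell lines was titrated to the linear growth range. Cells went into 384-well plates pre-printed in duplicate with compounds at 1, 10, 100, 1000 or 10000 nM and were held for 72 h at 37 °C with 5% CO2. CellTiter-Glo luminescence then provided the readout. Percent survival is expressed relative to vehicle at 100% and a 10 µM positive control at 0%, averaged over duplicates.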

HEL = assay: as above
Summary of the method: as §2

HL-60 [7] = assay: as above
Summary of the method: as §2

K-562 = assay: as above
Summary of the method: as §2

KCL-22 [8] = assay: as above
Summary of the method: as §2

KG-1 [9] = assay: as above
Summary of the method: as §2

KU-812 = assay: as above
Summary of the method: as §2

LAMA-84 = assay: as above
Summary of the method: as §2

ML-2 [10] = assay: as above
Summary of the method: as §2

MOLM-13 = assay: as above
Summary of the method: as §2

MV4-11 = assay: as above
Summary of the method: as §2

Mono-Mac-6 = assay: as above
Summary of the method: as §2

NOMO-1 [11] = assay: as above
Summary of the method: as §2

SHI-1 = assay: as above
Summary of the method: as §2

THP-1 = assay: as above
Summary of the method: as §2

CC[C@H](C)[C@H](N)C(=O)N1CCSC1 [P32/98]
Conditions	IC50 (cell viability) [µM]
HL-60 [1]	> 10
KCL-22 [2]	> 10
KG-1 [3]	> 10
ML-2 [4]	> 10
NOMO-1 [5]	> 10

cell viability [%], HL-60 [6]
Conditions	0.001 µM	0.01 µM	0.1 µM	1 µM	10 µM
co-treatment: AZD3965 100 nM	99.83 ± 0.39	97.4 ± 1.5	102 ± 5.5	98.4 ± 1.6	95.6 ± 4
co-treatment: DMSO vehicle	99.4 ± 4	105 ± 3.5	99.5 ± 1.5	98.74 ± 0.79	97.8 ± 4.4
co-treatment: GSK2194069 100 nM	99.6 ± 1.6	100 ± 3.4	98.8 ± 3.1	98.7 ± 4.2	96.6 ± 6.2
co-treatment: pictilisib 100 nM	105 ± 1.3	106 ± 19	96.3 ± 2	105 ± 3.8	101 ± 9.5

cell viability [%]
Conditions	1 nM	10 nM	100 nM	1000 nM	10000 nM
BV-173	96.2	95.3	96.7	115	84
HEL	105	98.7	109	107	105
HL-60 [7]	88.1	103	108	98.6	76.7
K-562	101	98.6	96.6	101	100
KCL-22 [8]	96.8	97.3	107	98.2	100
KG-1 [9]	97.9	110	108	112	137
KU-812	97.7	92.3	92.6	103	97.9
LAMA-84	96.6	102	102	106	103
ML-2 [10]	102	102	102	103	91.2
MOLM-13	84.3	87.8	99.7	103	97.4
MV4-11	98.7	110	106	96.9	108
Mono-Mac-6	93.6	99	109	103	101
NOMO-1 [11]	102	102	99.6	102	92.9
SHI-1	111	99.9	103	97.1	88.5
THP-1	96.8	105	112	104	106

Cc1cc(C(=O)NNCc2ccccc2)no1 [Isocarboxazid]
Conditions	IC50 (cell viability) [µM]
HL-60 [1]	> 10
KCL-22 [2]	> 10
KG-1 [3]	> 10
ML-2 [4]	> 10
NOMO-1 [5]	> 10

cell viability [%], HL-60 [6]
Conditions	0.001 µM	0.01 µM	0.1 µM	1 µM	10 µM
co-treatment: AZD3965 100 nM	103 ± 2.5	103 ± 6.9	94.9 ± 20	99.03 ± 0.43	101 ± 2.6
co-treatment: DMSO vehicle	102 ± 8.1	101 ± 3.7	96.3 ± 7.4	99.7 ± 2	100 ± 1.7
co-treatment: GSK2194069 100 nM	101 ± 4	102 ± 6	87 ± 17	102 ± 1.1	98.2 ± 5.2
co-treatment: pictilisib 100 nM	102 ± 2.6	96.8 ± 7.7	86.6 ± 22	103 ± 3.1	90 ± 3.2

cell viability [%]
Conditions	1 nM	10 nM	100 nM	1000 nM	10000 nM
BV-173	99.1	101	100	117	80.7
HEL	112	87.8	111	92.6	103
HL-60 [7]	107	90.1	106	122	102
K-562	116	91.5	88.5	99.6	107
KCL-22 [8]	105	91.3	94.3	98.3	65.6
KG-1 [9]	96.5	109	98.5	108	91.1
KU-812	96.2	99.6	93.8	93.9	100
LAMA-84	98.9	97.9	99.7	95.5	95.8
ML-2 [10]	95	101	101	90.4	85.4
MOLM-13	104	96.3	103	106	96.6
MV4-11	107	95	97.5	81.4	80.4
Mono-Mac-6	94.1	102	104	107	80.8
NOMO-1 [11]	105	103	109	112	92
SHI-1	101	99.9	98.4	99.1	95.2
THP-1	97.8	102	110	97.4	86.7

CN1CCN(CCCN2c3ccccc3Sc3ccc(C(F)(F)F)cc32)CC1 [Trifluoperazine]
Conditions	IC50 (cell viability) [µM]
HL-60 [1]	5.18
KCL-22 [2]	3.49
KG-1 [3]	3.54
ML-2 [4]	9.55
NOMO-1 [5]	> 10

cell viability [%], HL-60 [6]
Conditions	0.001 µM	0.01 µM	0.1 µM	1 µM	10 µM
co-treatment: AZD3965 100 nM	101 ± 4.4	100 ± 3.1	97.8 ± 3.9	101 ± 6	81.7 ± 4.7
co-treatment: DMSO vehicle	101.2 ± 0.65	103 ± 3.3	102 ± 2.1	102 ± 5.6	90.6 ± 3.6
co-treatment: GSK2194069 100 nM	94 ± 5.5	101 ± 10	96 ± 7.1	101 ± 4.1	70.4 ± 2.5
co-treatment: pictilisib 100 nM	97 ± 1.4	95.9 ± 4.1	108 ± 18	97.2 ± 18	47.7 ± 3.9

cell viability [%]
Conditions	1 nM	10 nM	100 nM	1000 nM	10000 nM
BV-173	97.3	94.8	103	97.6	55.3
HEL	110	82.7	99.9	86.5	65.1
HL-60 [7]	100	101	88.6	95.3	20.2
K-562	113	89.5	85.1	92	0.986
KCL-22 [8]	108	109	115	78.1	42.1
KG-1 [9]	106	103	100	79.8	42.8
KU-812	101	94	97.8	86.3	65.6
LAMA-84	101	100	98.8	83	76.5
ML-2 [10]	102	102	103	95.9	48.4
MOLM-13	105	85.4	101	93.2	57.7
MV4-11	99.5	79.6	93.8	89.9	50.3
Mono-Mac-6	108	112	90.4	83.2	66.6
NOMO-1 [11]	104	108	101	88.3	81
SHI-1	113	96.2	103	92.1	64.4
THP-1	97.9	102	100	87.6	72.4

COC(=O)c1cc2c(C(F)(F)F)cc(-c3ccccc3)cc2n1O [NHI-2]
Conditions	IC50 (cell viability) [µM]
HL-60 [1]	> 10
KCL-22 [2]	> 10
KG-1 [3]	> 10
ML-2 [4]	> 10
NOMO-1 [5]	> 10

cell viability [%], HL-60 [6]
Conditions	0.001 µM	0.01 µM	0.1 µM	1 µM	10 µM
co-treatment: AZD3965 100 nM	101 ± 16	90.5 ± 6	103 ± 8.9	107 ± 4.8	109 ± 7.1
co-treatment: DMSO vehicle	102 ± 3.1	100 ± 4	104 ± 1.4	102 ± 3.6	111 ± 6
co-treatment: GSK2194069 100 nM	103 ± 4.8	94.829 ± 0.083	100 ± 3.5	107.3 ± 0.8	98.4 ± 0.75
co-treatment: pictilisib 100 nM	96.9 ± 18	92.8 ± 10	103 ± 3.6	99.3 ± 8.1	97.3 ± 13

cell viability [%]
Conditions	1 nM	10 nM	100 nM	1000 nM	10000 nM
BV-173	100	100	101	73.7	94.2
HEL	83.5	91.9	90.4	89.4	92.5
HL-60 [7]	98.5	90.3	95.2	97.2	96.8
K-562	98.8	91.1	93.8	87.4	85.4
KCL-22 [8]	91.9	88.8	104	110	92.7
KG-1 [9]	97.6	90.8	100	85.9	97.7
KU-812	97.6	96.9	97.7	96.8	84.3
LAMA-84	91.9	95	93.9	87.5	76.4
ML-2 [10]	94.8	95.1	109	102	107
MOLM-13	87	80.6	91.3	95.6	105
MV4-11	99.7	91.1	91.2	85.3	94.3
Mono-Mac-6	93.6	102	114	89.5	103
NOMO-1 [11]	101	102	92.2	97.4	102
SHI-1	96.6	104	97.3	93.6	96.9
THP-1	97.4	99.3	104	98.9	108
